Data published in patent US10544095B2 (Pfizer Inc., priority 2015, dated 2020).

Experiments:
[1] = biological target: human recombinant TDO2 enzyme (Homo sapiens (Human), UniProt P48775); assay: Assay for TDO2 enzymatic activity determination; assay type: biochemical; settings: human recombinant TDO2, L-Trp 1 mM, kynurenine absorbance at 480 nm
Experimental: The compounds of formula I, its subformulae, and enantiomers, salts and solvates thereof, are useful to inhibit the enzymatic activity of human TDO2. To measure the TDO2 activity, the procedure described in Dolusic et al. J. Med. Chem.; 2011, 54, […] was adapted: the reaction mixture contained (final concentrations) potassium phosphate buffer (50 mM, pH 7.5), ascorbic acid ([…]), methylene blue (0.125 μM), catalase (40 units/mL, from bovine liver, Sigma), and human recombinant TDO2 enzyme (prepared as described in Dolusic et al. J. Med. Chem.; 2011, 54, 5320-5334; 0.9 μg) without or with the compounds of the present invention at the indicated concentrations (total volume 112.5 μL). The reaction was initiated by the addition of 37.5 μL of L-Trp (final concentration 1 mM) at room temperature. The reaction was conducted at room temperature during one hour and stopped by the addition of 30 μL of 30% (w/v) trichloroacetic acid. To convert N-formylkynurenine into kynurenine, the reaction mixture was incubated at 65° C. for 30 min. […] Kynurenine concentrations were determined by measuring the absorbance at 480 nm. A standard curve was made with pure kynurenine. The TDO activity was measured as described above using ten serial concentrations of the compounds of the present invention. Data were fitted using the Prism™ software (GraphPad Software, Inc.) using standard parameters.

[2] = biological target: hTDO2 in human glioblastoma A172 cells (Homo sapiens (Human), UniProt P48775); assay: Cellular assay for TDO2 activity determination in A172 cells; assay type: cell-based; settings: overnight incubation, kynurenine absorbance at 480 nm
Procedure, shortened: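 Glioblastoma A172 cells with endogenous hTDO2, 1.25×10^4 cells/well, incubated overnight at 37° C. with ten serial compound concentrations in IMDM with 2% FBS. Supernatant kynurenine, after TCA precipitation and 4-(dimethylamino)-benzaldehyde reaction, read at 480 nm against kynurenine standard curve; data curve-fitted.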

human recombinant TDO2 enzyme, sequence (P48775 whole entry): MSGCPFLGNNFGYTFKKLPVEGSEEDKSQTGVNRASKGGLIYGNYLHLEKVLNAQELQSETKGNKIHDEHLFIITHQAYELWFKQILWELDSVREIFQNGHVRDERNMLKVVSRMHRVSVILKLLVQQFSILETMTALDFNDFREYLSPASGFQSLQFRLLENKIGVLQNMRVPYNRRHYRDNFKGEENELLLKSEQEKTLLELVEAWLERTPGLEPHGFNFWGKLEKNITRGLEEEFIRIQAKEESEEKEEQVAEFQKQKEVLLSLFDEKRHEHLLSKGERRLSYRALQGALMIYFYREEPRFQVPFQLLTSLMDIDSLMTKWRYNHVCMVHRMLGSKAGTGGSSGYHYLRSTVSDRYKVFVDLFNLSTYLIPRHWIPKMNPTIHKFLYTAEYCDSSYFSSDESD
hTDO2 in human glioblastoma A172 cells, sequence (P48775 whole entry): as above

For CS(=O)(=O)c1ccc(-c2c[nH]c3cc(F)ccc23)cc1 [Example 1, 6-Fluoro-3-(4-methanesulfonyl-phenyl)-1H-indole], the IC50 [1] was 1.5 µM and the IC50 [2] was 0.084 µM.
Molecule NCCNC(=O)c1ccc(-c2c[nH]c3cc(F)ccc23)cc1 [Example 2, N-(2-aminoethyl)-4-(6-fluoro-1H-indol-3-yl)benzamide] has an IC50 [1] of 1.1 µM and an IC50 [2] of 0.15 µM.
O=C(c1ccc(-c2c[nH]c3cc(F)ccc23)cc1)N1CCNCC1 [Example 3, (4-(6-fluoro-1H-indol-3-yl)phenyl)(piperazin-1-yl)methanone] gave an IC50 [1] of 2.1 µM and an IC50 [2] of 0.11 µM.
For O=S(=O)(c1ccc(-c2c[nH]c3cc(F)ccc23)cc1)N1CCNCC1 [Example 4, 6-fluoro-3-(4-(piperazin-1-ylsulfonyl)phenyl)-1H-indole], the IC50 [1] was 2.1 µM and the IC50 [2] was 0.13 µM.
Molecule O=S(=O)(c1ccc(-c2c[nH]c3cc(F)ccc23)cc1)N1CCOCC1 [Example 5, 4-((4-(6-fluoro-1H-indol-3-yl)phenyl)sulfonyl)morpholine] has an IC50 [1] of 4.7 µM and an IC50 [2] of 0.25 µM.
Work on NS(=O)(=O)c1ccc(-c2c[nH]c3cc(F)ccc23)cc1 [Example 6, 4-(6-fluoro-1H-indol-3-yl)benzenesulfonamide] yielded an IC50 [1] of 1 µM and an IC50 [2] of 0.082 µM.
Molecule O=S(=O)(c1cccc(-c2c[nH]c3cc(F)ccc23)c1)N1CCNCC1 [Example 7, 6-fluoro-3-(3-(piperazin-1-ylsulfonyl)phenyl)-1H-indole] has an IC50 [1] of 4.4 µM and an IC50 [2] of 0.34 µM.
Molecule NCCNS(=O)(=O)c1ccc(-c2c[nH]c3cc(F)ccc23)cc1 [Example 8, N-(2-aminoethyl)-4-(6-fluoro-1H-indol-3-yl)-benzenesulfonamide] has an IC50 [1] of 0.89 µM and an IC50 [2] of 0.095 µM.
NCCNS(=O)(=O)c1cccc(-c2c[nH]c3cc(F)ccc23)c1 [Example 9, N-(2-aminoethyl)-3-(6-fluoro-1H-indol-3-yl)benzenesulfonamide] gave an IC50 [1] of 1.8 µM and an IC50 [2] of 0.24 µM.
Molecule NS(=O)(=O)c1cccc(-c2c[nH]c3cc(F)ccc23)c1 [Example 10, 3-(6-fluoro-1H-indol-3-yl)benzenesulfonamide] has an IC50 [1] of 2.4 µM and an IC50 [2] of 0.083 µM.
In the case of CS(=O)(=O)NCCNS(=O)(=O)c1ccc(-c2c[nH]c3cc(F)ccc23)cc1 [Example 21, 4-(6-fluoro-1H-indol-3-yl)-N-(2-(methylsulfonamido)-ethyl)benzenesulfonamide], the IC50 [1] is reported as 0.74 µM and the IC50 [2] is reported as 0.12 µM.
Molecule NC(=O)CCNS(=O)(=O)c1ccc(-c2c[nH]c3cc(F)ccc23)cc1 [Example 26, 3-(4-(6-fluoro-1H-indol-3-yl)phenylsulfonamido)propanamide] has an IC50 [1] of 0.73 µM and an IC50 [2] of 0.11 µM.
Work on N#Cc1cc(-c2c[nH]c3cc(F)ccc23)ccc1S(=O)(=O)N1CCNCC1 [Example 32, 5-(6-Fluoro-1H-indol-3-yl)-2-(piperazine-1-sulfonyl)-benzonitrile] yielded an IC50 [1] of 0.73 µM and an IC50 [2] of 0.17 µM.
With Cc1cc(-c2c[nH]c3cc(F)ccc23)ccc1S(=O)(=O)N1CCNCC1 [Example 34, 6-fluoro-3-(3-methyl-4-(piperazin-1-ylsulfonyl)-phenyl)-1H-indole] the IC50 [1] was 0.52 µM and the IC50 [2] was 0.29 µM.
O=S(=O)(c1ccc(-c2c[nH]c3cc(F)ccc23)cc1O)N1CCNCC1 [Example 35, 5-(6-fluoro-1H-indol-3-yl)-2-(piperazin-1-ylsulfonyl)phenol] was tested, and the IC50 [1] was 0.42 µM and the IC50 [2] was 0.33 µM.
NCCNS(=O)(=O)c1cc(-c2c[nH]c3cc(F)ccc23)ccc1Cl [Example 36, N-(2-aminoethyl)-2-chloro-5-(6-fluoro-1H-indol-3-yl)-benzenesulfonamide] showed an IC50 [1] of 0.77 µM and an IC50 [2] of 0.43 µM.
O=C1CN(S(=O)(=O)c2ccc(-c3c[nH]c4cc(F)ccc34)cc2)CCN1 [Example 40, 4-((4-(6-fluoro-1H-indol-3-yl)phenyl)sulfonyl)piperazin-2-one] was tested, and the IC50 [1] was 0.93 µM and the IC50 [2] was 0.17 µM.
CNC(=O)CCNS(=O)(=O)c1ccc(-c2c[nH]c3cc(F)ccc23)cc1 [Example 50, 3-(4-(6-fluoro-1H-indol-3-yl)phenylsulfonamido)-N-methylpropanamide] was tested, and the IC50 [1] was 0.96 µM and the IC50 [2] was 0.11 µM.
O=S(=O)(c1ccc(-c2c[nH]c3cc(F)ccc23)cc1)N1C[C@@H](O)[C@@H](O)C1 [Example 58, (cis)-1-((4-(6-fluoro-1H-indol-3-yl)phenyl)sulfonyl)-pyrrolidine-3,4-diol] was tested, and the IC50 [1] was 0.53 µM and the IC50 [2] was 0.13 µM.
For O=S(=O)(c1c(Cl)cc(-c2c[nH]c3cc(F)ccc23)cc1Cl)N1CCNCC1 [Example 76, 3-(3,5-dichloro-4-(piperazin-1-ylsulfonyl)phenyl)-6-fluoro-1H-indole], the IC50 [1] was 0.47 µM and the IC50 [2] was 0.833 µM.
With O=S(=O)(c1ccc(-c2c[nH]c3cc(F)ccc23)cc1)N1CC[C@@H](O)C1 [Example 77, (R)-1-((4-(6-fluoro-1H-indol-3-yl)phenyl)sulfonyl)-pyrrolidin-3-ol] the IC50 [1] was 0.17 µM and the IC50 [2] was 0.055 µM.
Molecule O=S(=O)(c1ccc(-c2c[nH]c3cc(F)ccc23)cc1)N1CC[C@H](O)C1 [Example 79, (S)-1-((4-(6-fluoro-1H-indol-3-yl)phenyl)sulfonyl)-pyrrolidin-3-ol] has an IC50 [1] of 0.12 µM and an IC50 [2] of 0.094 µM.
N[C@H]1CN(S(=O)(=O)c2ccc(-c3c[nH]c4cc(F)ccc34)cc2)C[C@@H]1F [Example 80, (3S,4 S)-4-fluoro-1-{[4-(6-fluoro-1H-indol-3-yl)phenyl]sulfonyl}pyrrolidin-3-amine] was tested, and the IC50 [1] was 0.9 µM and the IC50 [2] was 0.17 µM.
NC(=O)COC1CCN(S(=O)(=O)c2ccc(-c3c[nH]c4cc(F)ccc34)cc2)CC1 [Example 84, 2-[(1-{[4-(6-fluoro-1H-indol-3-yl)phenyl]sulfonyl}piperidin-4-yl)-oxy]acetamide] was tested, and the IC50 [1] was 1.9 µM and the IC50 [2] was 0.26 µM.
In the case of CN1CC(CNS(=O)(=O)c2ccc(-c3c[nH]c4cc(F)ccc34)cc2)OCC1=O (centres unmarked) [Example 86, 4-(6-fluoro-1H-indol-3-yl)-N-[(4-methyl-5-oxomorpholin-2-yl)methyl]benzenesulfonamide], the IC50 [1] is reported as 1.3 µM and the IC50 [2] is reported as 0.26 µM.
With O=S1(=O)CCC(NS(=O)(=O)c2ccc(-c3c[nH]c4cc(F)ccc34)cc2)C1 (centres unmarked) [Example 87, N-(1,1-dioxidotetrahydrothiophen-3-yl)-4-(6-fluoro-1H-indol-3-yl)-benzenesulfonamide] the IC50 [1] was 0.93 µM and the IC50 [2] was 0.17 µM.
NC(=O)CCNS(=O)(=O)c1ccc(-c2c[nH]c3cc(F)ccc23)cc1C(F)(F)F [Example 168, 3-((4-(6-fluoro-1H-indol-3-yl)-2-(trifluoromethyl)phenyl)-sulfonamido)propanamide] gave an IC50 [2] of 0.27 µM.
Molecule O=C(CCNS(=O)(=O)c1ccc(-c2c[nH]c3cc(F)ccc23)cc1)N1C[C@@H](O)[C@@H](O)C1 [Example 169, N-(3-((cis)-3,4-dihydroxypyrrolidin-1-yl)-3-oxopropyl)-4-(6-fluoro-1H-indol-3-yl)benzenesulfonamide] has an IC50 [2] of 0.511 µM.
For O=C(CCNS(=O)(=O)c1ccc(-c2c[nH]c3cc(F)ccc23)cc1)N1C[C@@H](O)[C@H](O)C1 [Example 170, (+)-N-(3-((3R,4R)-3,4-dihydroxypyrrolidin-1-yl)-3-oxopropyl)-4-(6-fluoro-1H-indol-3-yl) benzenesulfonamide], the IC50 [2] was 1.21 µM.
O=C(CCNS(=O)(=O)c1ccc(-c2c[nH]c3cc(F)ccc23)cc1)N1C[C@H](O)[C@@H](O)C1 [Example 171, (−)-N-(3-((3S,4S)-3,4-dihydroxypyrrolidin-1-yl)-3-oxopropyl)-4-(6-fluoro-1H-indol-3-yl)benzenesulfonamide] gave an IC50 [2] of 1.74 µM.
Molecule N[C@@H]1CN(C(=O)CCNS(=O)(=O)c2ccc(-c3c[nH]c4cc(F)ccc34)cc2)C[C@H]1F [Example 174, (+)-N-(3-((3R,4R)-3-amino-4-fluoropyrrolidin-1-yl)-3-oxopropyl)-4-(6-fluoro-1H-indol-3-yl)benzenesulfonamide] has an IC50 [2] of 0.383 µM.
NC(=O)CCNS(=O)(=O)c1ccc(-c2c[nH]c3cc(F)ccc23)cc1CC(F)F [Example 175, 3-((2-(2,2-difluoroethyl)-4-(6-fluoro-1H-indol-3-yl)-phenyl)sulfonamido)propanamide] showed an IC50 [2] of 0.449 µM.
With NS(=O)(=O)c1ccc(-c2c[nH]c3cc(F)ccc23)cc1CO [Example 176, 4-(6-fluoro-1H-indol-3-yl)-2-(hydroxymethyl)benzenesulfonamide] the IC50 [2] was 0.055 µM.
For NCc1cc(-c2c[nH]c3cc(F)ccc23)ccc1S(N)(=O)=O [Example 177, 2-(aminomethyl)-4-(6-fluoro-1H-indol-3-yl)benzenesulfonamide], the IC50 [2] was 0.7 µM.
With CS(=O)(=O)c1ccc(-c2c[nH]c3cc(F)ccc23)cc1CN [Example 178, (5-(6-fluoro-1H-indol-3-yl)-2-(methylsulfonyl)phenyl)methanamine] the IC50 [2] was 0.411 µM.
CS(=O)(=O)c1ccc(-c2c[nH]c3cc(F)ccc23)cc1CCO [Example 179, 2-(5-(6-fluoro-1H-indol-3-yl)-2-(methylsulfonyl)phenyl)ethanol] gave an IC50 [2] of 0.079 µM.
